# From patent US20170334899A1, “AMINO-SUBSTITUTED ISOTHIAZOLES” (Bayer Pharma Aktiengesellschaft, priority 2014, published 2017)
# Columns and labels:
# [1] = tested on: human cervical tumor cell line HeLa (ATCC CCL-2); assay: SAC-Formation - Nocodazole-Induced Assay; assay type: cell-based; conditions: Homo sapiens, HeLa, 24 h, HeLa cells, nocodazole 0.1 μg/ml together with test compound, decrease of mitotic cells (phospho-histone H3 Ser10)
# Method in brief: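 Loss of phospho-histone H3 Ser10-positive cells, counted against Hoechst-stained nuclei by high-content imaging, marked mitotic breakthrough. Compounds (0.005–20 μM, 0.5% DMSO) were co-dosed with 0.1 μg/ml nocodazole onto HeLa cells for 24 h at 37 °C. Curves were fitted with a four-parameter Hill equation.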
# HeLa = assay: Proliferation assay (crystal violet), HeLa; assay type: cell-based; conditions: Homo sapiens, HeLa, 96 h, HeLa cells; 4 days incubation; crystal violet staining; read-out: IC50 inhibition of proliferation, HeLa
# Method in brief: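 Absorbance at 595 nm of crystal-violet-stained cells after 4 days' exposure to 0.001–10 μM compound (0.5% DMSO). Values normalized to a day-0 plate (0%) and untreated cells (100%); IC50 by 4-parameter fit.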
SMILES,IC50 [1] [nM],IC50 (HeLa) [nM]
"Cc1nsc(Nc2cnc(C(F)(F)F)cn2)c1C(=O)Nc1ccc(OCCCN(C)CC(F)(F)F)nc1 [Example 354, 3-methyl-N-(6-{3-[methyl(2,2,2-trifluoroethyl)amino]propoxy}pyridin-3-yl)-5-{[5-(trifluoromethyl)pyrazin-2-yl]amino}-1,2-thiazole-4-carboxamide]",110,330
"Cc1nsc(Nc2cnc(C(F)(F)F)cn2)c1C(=O)Nc1ccc(OCCCN(C)CCC(F)(F)F)nc1 [Example 355, 3-methyl-N-(6-{3-[methyl(3,3,3-trifluoropropyl)amino]propoxy}pyridin-3-yl)-5-{[5-(trifluoromethyl)pyrazin-2-yl]amino}-1,2-thiazole-4-carboxamide]",150,330
"Cc1nsc(Nc2cnc(C(F)(F)F)cn2)c1C(=O)Nc1ccc(CCC2CCN(CC(F)F)CC2)nc1 [Example 356, N-(6-{2-[1-(2,2-difluoroethyl)piperidin-4-yl]ethyl}pyridin-3-yl)-3-methyl-5-{[5-(trifluoromethyl)pyrazin-2-yl]amino}-1,2-thiazole-4-carboxamide]",50,770
"Cc1nsc(Nc2cnc(C(F)(F)F)cn2)c1C(=O)Nc1ccc(C2CCN(CC(F)F)CC2)nc1 [Example 357, N-{6-[1-(2,2-difluoroethyl)piperidin-4 yl]pyridin-3-yl}-3-methyl-5-{[5-(trifluoromethyl)pyrazin-2-yl]amino}-1,2-thiazole-4-carboxamide]",44,430
"Cc1nsc(Nc2cnc(C(F)(F)F)cn2)c1C(=O)Nc1ccc(C2CCN(CC(F)(F)F)CC2)nc1 [Example 358, 3-methyl-N-{6-[1-(2,2,2-trifluoroethyl)piperidin-4-yl]pyridin-3-yl}-5-{[5-(trifluoromethyl)pyrazin-2-yl]amino}-1,2-thiazole-4-carboxamide]",30,320
"Cc1nsc(Nc2cnc(C(F)(F)F)cn2)c1C(=O)Nc1ccc(N2CCN(CC(F)F)CC2)nc1 [Example 359, N-{6-[4-(2,2-difluoroethyl)piperazin-1-yl]pyridin-3-yl}-3-methyl-5-{[5-(trifluoromethyl)pyrazin-2-yl]amino}-1,2-thiazole-4-carboxamide]",29,640
"Cc1nsc(Nc2cnc(C(F)(F)F)cn2)c1C(=O)Nc1ccc(N2CCN(CC(F)(F)F)CC2)nc1 [Example 360, 3-methyl-N-{6-[4-(2,2,2-trifluoroethyl)piperazin-1-yl]pyridin-3-yl}-5-{[5-(trifluoromethyl)pyrazin-2-yl]amino}-1,2-thiazole-4-carboxamide]",36,350
"Cc1nsc(Nc2cnc(C(F)(F)F)cn2)c1C(=O)Nc1ccc(N2CCN(CCC(F)(F)F)CC2)nc1 [Example 361, 3-methyl-5-{[5-(trifluoromethyl)pyrazin-2-yl]amino}-N-{6-[4-(3,3,3-trifluoropropyl)piperazin-1-yl]pyridin-3-yl}-1,2-thiazole-4-carboxamide]",68,380
Cc1nsc(Nc2cnc(C(F)(F)F)cn2)c1C(=O)Nc1ccc(O[C@H]2CCN(CC(F)F)C[C@@H]2F)nc1 [Example 362],2.3,340

# Results, then the compound that gave them:
IC50 [1] [nM],IC50 (HeLa) [nM],SMILES
110,340,"Cc1nsc(Nc2cnc(C(F)(F)F)cn2)c1C(=O)Nc1ccc(O[C@H]2CCN(CC(F)(F)F)C[C@@H]2F)nc1 [Example 363, N-(6-{[(3S,4S)-3-fluoro-1-(2,2,2-trifluoroethyl)piperidin-4-yl]oxy}pyridin-3-yl)-3-methyl-5-{[5-(trifluoromethyl)pyrazin-2-yl]amino}-1,2-thiazole-4-carboxamide]"
12,290,"Cc1nsc(Nc2cnc(C(F)(F)F)cn2)c1C(=O)Nc1ccc(O[C@H]2CCN(CCC(F)(F)F)C[C@@H]2F)nc1 [Example 364, N-(6-{[(3S,4S)-3-fluoro-1-(3,3,3-trifluoropropyl)piperidin-4-yl]oxy}pyridin-3-yl)-3-methyl-5-{[5-(trifluoromethyl)pyrazin-2-yl]amino}-1,2-thiazole-4-carboxamide]"
34,410,"CCN1CC[C@H](Oc2ccc(NC(=O)c3c(C)nsc3Nc3cnc(C(F)(F)F)cn3)cn2)[C@@H](F)C1 [Example 365, N-(6-{[(3S,4S)-1-ethyl-3-fluoropiperidin-4-yl]oxy}pyridin-3-yl)-3-methyl-5-{[5-(trifluoromethyl)pyrazin-2-yl]amino}-1,2-thiazole-4-carboxamide]"
58,300,"Cc1nsc(Nc2cnc(C(F)(F)F)cn2)c1C(=O)Nc1ccc(O[C@@H]2CCN(CC(F)F)C[C@H]2F)nc1 [Example 366, N-(6-{[(3R,4R)-1-(2,2-difluoroethyl)-3-fluoropiperidin-4-yl]oxy}pyridin-3-yl)-3-methyl-5-{[5-(trifluoromethyl)pyrazin-2-yl]amino}-1,2-thiazole-4-carboxamide]"
27,300,"Cc1nsc(Nc2cnc(C(F)(F)F)cn2)c1C(=O)Nc1ccc(O[C@@H]2CCN(CC(F)(F)F)C[C@H]2F)nc1 [Example 367, N-(6-{[(3R,4R)-3-fluoro-1-(2,2,2-trifluoroethyl)piperidin-4-yl]oxy}pyridin-3-yl)-3-methyl-5-{[5-(trifluoromethyl)pyrazin-2-yl]amino}-1,2-thiazole-4-carboxamide]"
16,350,"Cc1nsc(Nc2cnc(C(F)(F)F)cn2)c1C(=O)Nc1ccc(O[C@@H]2CCN(CCC(F)(F)F)C[C@H]2F)nc1 [Example 368, N-(6-{[(3R,4R)-3-fluoro-1-(3,3,3-trifluoropropyl)piperidin-4-yl]oxy}pyridin-3-yl)-3-methyl-5-{[5-(trifluoromethyl)pyrazin-2-yl]amino}-1,2-thiazole-4-carboxamide]"
58,390,"CCN1CC[C@@H](Oc2ccc(NC(=O)c3c(C)nsc3Nc3cnc(C(F)(F)F)cn3)cn2)[C@H](F)C1 [Example 369, N-(6-{[(3R,4R)-1-ethyl-3-fluoropiperidin-4-yl]oxy}pyridin-3-yl)-3-methyl-5-{[5-(trifluoromethyl)pyrazin-2-yl]amino}-1,2-thiazole-4-carboxamide]"
22,300,"CCCN1CC[C@H](Oc2ccc(NC(=O)c3c(C)nsc3Nc3cnc(C(F)(F)F)cn3)cn2)[C@@H](F)C1 [Example 370, N-(6-{[(3S,4S)-3-fluoro-1-propylpiperidin-4-yl]oxy}pyridin-3-yl)-3-methyl-5-{[5-(trifluoromethyl)pyrazin-2-yl]amino}-1,2-thiazole-4-carboxamide]"
27,320,"CCCN1CC[C@@H](Oc2ccc(NC(=O)c3c(C)nsc3Nc3cnc(C(F)(F)F)cn3)cn2)[C@H](F)C1 [Example 371, N-(6-{[(3R,4R)-3-fluoro-1-propylpiperidin-4-yl]oxy}pyridin-3-yl)-3-methyl-5-{[5-(trifluoromethyl)pyrazin-2-yl]amino}-1,2-thiazole-4-carboxamide]"
120,1500,"Cc1nsc(Nc2cnc(C(F)(F)F)cn2)c1C(=O)Nc1ccc(N2CCN(CC(F)F)CC2)cn1 [Example 372, N-{5-[4-(2,2-difluoroethyl)piperazin-1-yl]pyridin-2-yl}-3-methyl-5-{[5-(trifluoromethyl)pyrazin-2-yl]amino}-1,2-thiazole-4-carboxamide]"
